# Test results from US9359308B2, “Pyrazine kinase inhibitors” (Portola Pharmaceuticals, Inc., priority 2011, dated 2016).
# Molecular target: T1, full length active recombinant SYK enzyme (Homo sapiens, UniProt P43405)
# T1 construct: full length active recombinant SYK enzyme (Millipore, Calif.); purchased Millipore
# Assay: Inhibition of Syk tyrosine phosphorylation activity (LANCE TR-FRET kinase assay)
# Assay type: biochemical
# Conditions: activity in the Syk assays, class symbols
# Method in brief: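 1 nM full-length active recombinant SYK phosphorylated 550 nM biotin-DEEDYESP-OH with 100 μM ATP in 50 mM Tris pH 7.5, 5 mM MgCl2, 1 mM DTT and 3% DMSO for 1 h at room temperature. After EDTA quench, Eu-anti-phosphotyrosine/SA-APC TR-FRET was read after 1 h. IC50s came from non-linear regression.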
row,Compound,IC50 [nM]
1,"Cc1ccc(Nc2nc(N[C@H](CC(C)C)C(N)=O)cnc2C(N)=O)cn1 [Example 86, (R)-5-(1-amino-4-methyl-1-oxopentan-2-ylamino)-3-(6-methylpyridin-3-ylamino)pyrazine-2-carboxamide]",10 to 100
2,"CC(C)C[C@@H](Nc1cnc(C(N)=O)c(Nc2cccc(-c3ccncc3)c2)n1)C(N)=O [Example 87, (R)-5-(1-amino-4-methyl-1-oxopentan-2-ylamino)-3-(3-(pyridin-4-yl)phenylamino)pyrazine-2-carboxamide]",1 to 10
3,"CC(C)C[C@@H](Nc1cnc(C(N)=O)c(Nc2ccc(-c3ccccn3)cc2)n1)C(N)=O [Example 88, (R)-5-(1-amino-4-methyl-1-oxopentan-2-ylamino)-3-(4-(pyridin-2-yl)phenylamino)pyrazine-2-carboxamide]",1 to 10
4,"CC(C)C[C@@H](Nc1cnc(C(N)=O)c(Nc2ccc3c(c2)CCC(=O)N3C)n1)C(N)=O [Example 89, (R)-5-(1-amino-4-methyl-1-oxopentan-2-ylamino)-3-(1-methyl-2-oxo-1,2,3,4-tetrahydroquinolin-6-ylamino)pyrazine-2-carboxamide]",1 to 10
5,"CN1C(=O)CCc2cc(Nc3nc(N[C@@H]4CCCC[C@@H]4N)cnc3C(N)=O)ccc21 [Example 90, 5-((1R,2S)-2-aminocyclohexylamino)-3-(1-methyl-2-oxo-1,2,3,4-tetrahydroquinolin-6-ylamino)pyrazine-2-carboxamide]",1 to 10
6,"COc1cc(Nc2nc(N[C@H]3CCCC[C@@H]3N)cnc2C(N)=O)cc(OC)c1 [Example 93, 5-(((1S,2S)-2-aminocyclohexyl)amino)-3-((3,5-dimethoxyphenyl)amino)pyrazine-2-carboxamide]",1 to 10
7,"CC(C)C[C@@H](Nc1nc(Nc2cnc3ccccc3c2)cnc1C(N)=O)C(N)=O [Example 95, (R)-3-(1-amino-4-methyl-1-oxopentan-2-ylamino)-5-(quinolin-3-ylamino)pyrazine-2-carboxamide]",> 1000
8,"NC(=O)c1ncc(Nc2cccc(-n3nccn3)c2)nc1N[C@@H]1CCCC[C@@H]1N [Example 96, 5-(3-(2H-1,2,3-triazol-2-yl)phenylamino)-3-((1R,2S)-2-aminocyclohexylamino)pyrazine-2-carboxamide]",10 to 100
9,"CC[C@@H](Nc1cnc(C(N)=O)c(-n2cnc(-c3ccc(N)cc3)c2)n1)C(N)=O [Example 97, (R)-5-(1-amino-1-oxobutan-2-ylamino)-3-(4-(4-aminophenyl)-1H-imidazol-1-yl)pyrazine-2-carboxamide]",> 1000
10,"CC(C)C[C@@H](Nc1cnc(C(N)=O)c(Nc2cccc(-c3ccccn3)c2)n1)C(N)=O [Example 98, (R)-5-(1-amino-4-methyl-1-oxopentan-2-ylamino)-3-(3-(pyridin-2-yl)phenylamino)pyrazine-2-carboxamide]",10 to 100
11,"Cc1cncc(Nc2nc(N[C@H](CC3CC3)C(N)=O)cnc2C(N)=O)c1 [Example 99, (R)-5-(1-amino-3-cyclopropyl-1-oxopropan-2-ylamino)-3-(5-methylpyridin-3-ylamino)pyrazine-2-carboxamide]",1 to 10
12,"Cc1cc(Nc2nc(N[C@H](CC3CC3)C(N)=O)cnc2C(N)=O)c[n+]([O-])c1 [Example 100, (R)-3-(6-(1-amino-3-cyclopropyl-1-oxopropan-2-ylamino)-3-carbamoylpyrazin-2-ylamino)-5-methylpyridine 1-oxide]",10 to 100
13,"Cc1cc(Nc2nc(N[C@H](CC3CC3)C(N)=O)cnc2C(N)=O)ccn1 [Example 101, (R)-5-(1-amino-3-cyclopropyl-1-oxopropan-2-ylamino)-3-(2-methylpyridin-4-ylamino)pyrazine-2-carboxamide]",1 to 10
14,"NC(=O)c1ncc(N[C@@H]2CCCC(F)(F)[C@@H]2N)nc1Nc1cnc2ccccc2c1 [Example 102, 5-((1R,2R)-2-amino-3,3-difluorocyclohexylamino)-3-(quinolin-3-ylamino)pyrazine-2-carboxamide]",10 to 100
15,"Cc1cccc(Nc2nc(N[C@@H]3CCCC(F)(F)[C@@H]3N)cnc2C(N)=O)c1 [Example 103, 5-((1R,2R)-2-amino-3,3-difluorocyclohexylamino)-3-(m-tolylamino)pyrazine-2-carboxamide]",10 to 100
16,"NC(=O)c1ncc(N[C@@H]2CCNC2)nc1Nc1cccc(-n2nccn2)c1 [Example 105, (R)-3-((3-(2H-1,2,3-triazol-2-yl)phenyl)amino)-5-(pyrrolidin-3-ylamino)pyrazine-2-carboxamide]",1 to 10
17,"NC(=O)c1ncc(N[C@@H]2CCNC2)nc1Nc1csc2ncccc12 [Example 106, (R)-5-(pyrrolidin-3-ylamino)-3-(thieno[2,3-b]pyridin-3-ylamino)pyrazine-2-carboxamide]",1 to 10
18,"NC(=O)c1ncc(N[C@@H]2CCNC2)nc1Nc1cnn2ccccc12 [Example 107, (R)-3-(pyrazolo[1,5-a]pyridin-3-ylamino)-5-(pyrrolidin-3-ylamino)pyrazine-2-carboxamide]",10 to 100
19,"NC(=O)c1ncc(N[C@H]2CCNC2)nc1Nc1ccc2ncccc2c1 [Example 108, (S)-5-(pyrrolidin-3-ylamino)-3-(quinolin-6-ylamino)pyrazine-2-carboxamide]",10 to 100
20,"CC(=O)N1CCC[C@H](Nc2cnc(C(N)=O)c(Nc3cnc4ccccc4c3)n2)C1 [Example 109, (S)-5-((1-acetylpiperidin-3-yl)amino)-3-(quinolin-3-ylamino)pyrazine-2-carboxamide]",> 1000
21,"CC(=O)N1CC[C@@H](Nc2cnc(C(N)=O)c(Nc3cnc4ccccc4c3)n2)C1 [Example 110, (R)-5-((1-acetylpyrrolidin-3-yl)amino)-3-(quinolin-3-ylamino)pyrazine-2-carboxamide]",> 1000
22,"CC(=O)N1CC[C@@H](Nc2cnc(C(N)=O)c(Nc3ccc4ncccc4c3)n2)C1 [Example 111, (R)-5-((1-acetylpyrrolidin-3-yl)amino)-3-(quinolin-6-ylamino)pyrazine-2-carboxamide]",> 1000
23,"Cc1ccc(Nc2nc(N[C@@H]3CCNC3)cnc2C(N)=O)cc1 [Example 112, (R)-5-(pyrrolidin-3-ylamino)-3-(p-tolylamino)pyrazine-2-carboxamide]",10 to 100
24,"NC(=O)c1ncc(N[C@@H]2CCNC2)nc1Nc1cccnc1 [Example 113, (R)-3-(pyridin-3-ylamino)-5-(pyrrolidin-3-ylamino)pyrazine-2-carboxamide]",10 to 100
25,"NC(=O)c1ncc(N[C@@H]2CCNC2)nc1Nc1cccc(-c2ncccn2)c1 [Example 114, (R)-3-((3-(pyrimidin-2-yl)phenyl)amino)-5-(pyrrolidin-3-ylamino)pyrazine-2-carboxamide]",1 to 10
26,"NC(=O)c1ncc(N[C@@H]2CCNC2)nc1Nc1cncc(F)c1 [Example 115, (R)-3-((5-fluoropyridin-3-yl)amino)-5-(pyrrolidin-3-ylamino)pyrazine-2-carboxamide]",100 to 1000

# More lines, now with the values ahead:
row,IC50 [nM],Compound
1,1 to 10,"Cc1cccc(Nc2nc(N[C@@H]3CCNC3)cnc2C(N)=O)c1 [Example 116, (R)-5-(pyrrolidin-3-ylamino)-3-(m-tolylamino)pyrazine-2-carboxamide]"
2,10 to 100,"NC(=O)c1ncc(N[C@@H]2CCNC2)nc1Nc1cnc2ccncc2c1 [Example 117, (R)-3-((1,6-naphthyridin-3-yl)amino)-5-(pyrrolidin-3-ylamino)pyrazine-2-carboxamide]"
3,100 to 1000,"N#CCN1CC[C@@H](Nc2cnc(C(N)=O)c(Nc3cnc4ccncc4c3)n2)C1 [Example 118, (R)-3-((1,6-naphthyridin-3-yl)amino)-5-((1-(cyanomethyl)pyrrolidin-3-yl)amino)pyrazine-2-carboxamide]"
4,1 to 10,"Cc1cc(Nc2nc(N[C@H](CC(F)F)C(N)=O)cnc2C(N)=O)sn1 [Example 119, (R)-5-((1-amino-4,4-difluoro-1-oxobutan-2-yl)amino)-3-((3-methylisothiazol-5-yl)amino)pyrazine-2-carboxamide]"
5,10 to 100,"Cc1nsc(Nc2nc(N[C@@H]3CCCC[C@@H]3N)cnc2C(N)=O)c1-c1ccccc1 [Example 120, 5-(((1R,2S)-2-aminocyclohexyl)amino)-3-((3-methyl-4-phenylisothiazol-5-yl)amino)pyrazine-2-carboxamide]"
6,100 to 1000,Cc1nsc(Nc2nc(N[C@@H]3CCCC[C@@H]3N)cnc2C(N)=O)c1-c1cccnc1 [Example 121]
7,< 1,"Cc1ccc(Nc2nc(N[C@H](CC(F)F)C(N)=O)cnc2C(N)=O)cc1C [Example 122, (R)-5-((1-amino-4,4-difluoro-1-oxobutan-2-yl)amino)-3-((3,4-dimethylphenyl)amino)pyrazine-2-carboxamide]"
8,1 to 10,"Cc1ccc(Nc2nc(N[C@H](CC(F)F)C(N)=O)cnc2C(N)=O)cc1 [Example 123, (R)-5-((1-amino-4,4-difluoro-1-oxobutan-2-yl)amino)-3-(p-tolylamino)pyrazine-2-carboxamide]"
9,> 1000,"Cc1nsc(Nc2nc(N[C@@H]3CCCC[C@@H]3N)cnc2C(N)=O)c1-c1cncnc1 [Example 125, 5-(((1R,2S)-2-aminocyclohexyl)amino)-3-((3-methyl-4-(pyrimidin-5-yl)isothiazol-5-yl)amino)pyrazine-2-carboxamide]"
10,1 to 10,"NC(=O)c1ncc(N[C@H](CC(F)(F)F)C(N)=O)nc1Nc1cnc2cccnc2c1 [Example 126, (R)-3-((1,5-naphthyridin-3-yl)amino)-5-((1-amino-4,4,4-trifluoro-1-oxobutan-2-yl)amino)pyrazine-2-carboxamide]"
11,1 to 10,"NC(=O)c1ncc(N[C@H](CC(F)F)C(N)=O)nc1Nc1cnc2cccnc2c1 [Example 127, (R)-3-((1,5-naphthyridin-3-yl)amino)-5-((1-amino-4,4-difluoro-1-oxobutan-2-yl)amino)pyrazine-2-carboxamide]"
12,1 to 10,"NC(=O)c1ncc(NCC2(N)CC2)nc1Nc1ccc2ncccc2c1 [Example 128, 5-(((1-aminocyclopropyl)methyl)amino)-3-(quinolin-6-ylamino)pyrazine-2-carboxamide]"
